Test results as given in patent publication US10189841B2, “Purinones as ubiquitin-specific protease 1 inhibitors” (Forma Therapeutics, Inc., priority 2015, dated 2019).

Target: USP1 (construct USP1 (I-785, GG670, 671AA)/UAF1 (I-677)-Flag) (Homo sapiens (Human), UniProt O94782, G670A/G671A)
Experiment: Ubiquitin-Rhodamine 110 assay for USP1 activity
Format: biochemical
Settings: USP1/UAF1 25 pM, Ub-Rh110 25 nM, 30 min preincubation
In short: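 Ub-Rh110 (25 nM, ≪Km) cleavage read at ex 485/em 535 in Tris pH 8.0, CaCl2, GSH, Prionex, Triton X-100. The screen used 10 µM compound, 100 pM USP1/UAF1 and 45 min at RT.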

Chain of USP1 (construct USP1 (I-785, GG670, 671AA)/UAF1 (I-677)-Flag) (O94782 whole entry G670A/G671A): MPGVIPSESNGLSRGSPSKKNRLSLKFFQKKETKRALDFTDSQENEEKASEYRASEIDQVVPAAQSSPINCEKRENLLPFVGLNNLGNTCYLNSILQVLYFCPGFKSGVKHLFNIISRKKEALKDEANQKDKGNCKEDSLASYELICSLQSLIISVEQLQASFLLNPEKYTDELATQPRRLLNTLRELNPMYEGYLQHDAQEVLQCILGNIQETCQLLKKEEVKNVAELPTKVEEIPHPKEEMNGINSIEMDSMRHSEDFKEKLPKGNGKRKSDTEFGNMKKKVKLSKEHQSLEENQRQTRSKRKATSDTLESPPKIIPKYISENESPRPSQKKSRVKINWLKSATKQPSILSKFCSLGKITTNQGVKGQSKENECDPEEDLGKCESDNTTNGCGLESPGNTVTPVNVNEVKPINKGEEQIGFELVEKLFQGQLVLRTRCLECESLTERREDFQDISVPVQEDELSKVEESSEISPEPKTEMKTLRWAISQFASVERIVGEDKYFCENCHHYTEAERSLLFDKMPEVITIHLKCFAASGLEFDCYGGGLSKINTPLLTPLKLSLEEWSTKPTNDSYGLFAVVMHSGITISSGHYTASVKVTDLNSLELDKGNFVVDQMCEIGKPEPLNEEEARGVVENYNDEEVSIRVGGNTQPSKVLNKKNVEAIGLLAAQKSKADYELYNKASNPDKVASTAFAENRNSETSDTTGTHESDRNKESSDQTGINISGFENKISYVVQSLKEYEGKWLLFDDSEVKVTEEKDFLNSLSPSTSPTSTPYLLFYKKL
Chain of USP1 (construct USP1 (I-785, GG670, 671AA)/UAF1 (I-677)-Flag) (Q8TAF3 whole entry partner): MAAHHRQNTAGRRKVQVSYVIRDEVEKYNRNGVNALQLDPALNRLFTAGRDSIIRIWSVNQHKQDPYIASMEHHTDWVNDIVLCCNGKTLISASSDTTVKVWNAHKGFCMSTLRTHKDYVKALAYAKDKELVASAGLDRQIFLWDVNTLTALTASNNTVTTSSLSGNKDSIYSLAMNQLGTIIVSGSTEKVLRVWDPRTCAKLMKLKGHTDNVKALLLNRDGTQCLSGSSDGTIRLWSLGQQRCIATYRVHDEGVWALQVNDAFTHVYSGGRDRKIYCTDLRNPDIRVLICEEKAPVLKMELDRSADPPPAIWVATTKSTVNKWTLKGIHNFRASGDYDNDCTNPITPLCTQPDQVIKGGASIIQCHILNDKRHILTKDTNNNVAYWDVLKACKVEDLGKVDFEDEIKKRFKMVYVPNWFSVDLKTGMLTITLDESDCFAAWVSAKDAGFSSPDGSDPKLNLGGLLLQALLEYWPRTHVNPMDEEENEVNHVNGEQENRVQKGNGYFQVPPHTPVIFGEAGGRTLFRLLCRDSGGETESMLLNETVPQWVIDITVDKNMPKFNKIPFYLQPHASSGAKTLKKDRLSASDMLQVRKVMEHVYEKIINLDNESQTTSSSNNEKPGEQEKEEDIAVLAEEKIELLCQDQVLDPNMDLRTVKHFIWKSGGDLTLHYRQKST

Row | SMILES | IC50 [nM]
1 | CC(C)c1ncccc1-c1ncc2[nH]c(=O)n(Cc3ccc(-c4nc(C(F)(F)F)cn4C4CN(C)C4)cc3)c2n1 [Compound I-438, 2-(2-Isopropylpyridin-3-yl)-9-(4-(1-(1-methylazetidin-3-yl)-4-(trifluoromethyl)-1H-imidazol-2-yl)benzyl)-7,9-dihydro-8H-purin-8-one] | < 50
2 | CC(C)c1ccccc1-c1ncc2[nH]c(=O)n(Cc3ccc(-n4ccc(C5CCN(C)CC5)n4)cc3)c2n1 [Compound I-439, 2-(2-isopropylphenyl)-9-(4-(3-(1-methylpiperidin-4-yl)-1H-pyrazol-1-yl)benzyl)-7,9-dihydro-8H-purin-8-one] | 50 to 200
3 | CC(C)c1ccccc1-c1ncc2[nH]c(=O)n(Cc3ccc(-n4ccc(C5CCN(C)C5)n4)cc3)c2n1 (stereo not drawn) [Compound I-440, 2-(2-isopropylphenyl)-9-(4-(3-(1-methylpyrrolidin-3-yl)-1H-pyrazol-1-yl)benzyl)-7,9-dihydro-8H-purin-8-one] | 200 to 2000
4 | CC(C)c1c(F)cccc1-c1ncc2[nH]c(=O)n(Cc3ccc(-n4ccc(C5CCN(C)CC5)n4)cc3)c2n1 [Compound I-441, 2-(3-fluoro-2-isopropylphenyl)-9-(4-(3-(1-methylpiperidin-4-yl)-1H-pyrazol-1-yl)benzyl)-7,9-dihydro-8H-purin-8-one] | 50 to 200
5 | CC(C)c1ncccc1-c1ncc2[nH]c(=O)n(Cc3ccc(-n4ccc(C5CCN(C)CC5)n4)cc3)c2n1 [Compound I-442, 2-(2-isopropylpyridin-3-yl)-9-(4-(3-(1-methylpiperidin-4-yl)-1H-pyrazol-1-yl)benzyl)-7,9-dihydro-8H-purin-8-one] | > 2000
6 | CN1CCC(c2ccn(-c3ccc(Cn4c(=O)[nH]c5cnc(-c6cccnc6OCC(F)(F)F)nc54)cc3)n2)CC1 [Compound I-443, 9-(4-(3-(1-methylpiperidin-4-yl)-1H-pyrazol-1-yl)benzyl)-2-(2-(2,2,2-trifluoroethoxy)pyridin-3-yl)-7,9-dihydro-8H-purin-8-one] | 200 to 2000
7 | CC(C)c1ccccc1-c1ncc2[nH]c(=O)n(Cc3ccc(-n4ccc(C5CCCN(C)C5)n4)cc3)c2n1 (stereo not drawn) [Compound I-444, 2-(2-isopropylphenyl)-9-(4-(3-(1-methylpiperidin-3-yl)-1H-pyrazol-1-yl)benzyl)-7,9-dihydro-8H-purin-8-one] | < 50
8 | CC(C)c1ccccc1-c1ncc2[nH]c(=O)n(Cc3ccc(-c4nc(C5CCN(C)CC5)cn4C)cc3)c2n1 [Compound I-445, 2-(2-isopropylphenyl)-9-(4-(1-methyl-4-(1-methylpiperidin-4-yl)-1H-imidazol-2-yl)benzyl)-7,9-dihydro-8H-purin-8-one] | < 50
9 | CC(C)c1ccccc1-c1ncc2[nH]c(=O)n(Cc3ccc(-c4ncc(C5CCN(C)CC5)n4C)cc3)c2n1 [Compound I-446, 2-(2-isopropylphenyl)-9-(4-(1-methyl-5-(1-methylpiperidin-4-yl)-1H-imidazol-2-yl)benzyl)-7,9-dihydro-8H-purin-8-one] | < 50
10 | CC(C)c1ccccc1-c1ncc2[nH]c(=O)n(Cc3ccc(-c4nc(C(F)(F)F)cn4C4CN(C)C4)cc3)c2n1 [Compound I-447, 2-(2-isopropylphenyl)-9-(4-(1-(1-methylazetidin-3-yl)-4-(trifluoromethyl)-1H-imidazol-2-yl)benzyl)-7,9-dihydro-8H-purin-8-one] | < 50
11 | CC(C)c1ccccc1-c1ncc2c(n1)n(Cc1ccc(-c3nc(C(F)(F)F)cn3C3CN(C)C3)cc1)c(=O)n2C [Compound I-448, 2-(2-isopropylphenyl)-7-methyl-9-(4-(1-(1-methylazetidin-3-yl)-4-(trifluoromethyl)-1H-imidazol-2-yl)benzyl)-7,9-dihydro-8H-purin-8-one] | < 50
12 | CC(C)c1ccccc1-c1ncc2c(n1)n(CC1CCN(S(=O)(=O)c3cccnc3)CC1)c(=O)n2C [Compound I-449, 2-(2-isopropylphenyl)-7-methyl-9-((1-(pyridin-3-ylsulfonyl)piperidin-4-yl)methyl)-7,9-dihydro-8H-purin-8-one] | > 2000
13 | CC(C)c1ccccc1-c1ncc2c(n1)n(CC1CCN(S(=O)(=O)C(C)C)CC1)c(=O)n2C [Compound I-450, 2-(2-isopropylphenyl)-9-((1-(isopropylsulfonyl)piperidin-4-yl)methyl)-7-methyl-7,9-dihydro-8H-purin-8-one] | 50 to 200
14 | CC(C)c1ccccc1-c1ncc2c(n1)n(CC1CCN(S(=O)(=O)c3nccn3C)CC1)c(=O)n2C [Compound I-451, 2-(2-isopropylphenyl)-7-methyl-9-((1-((1-methyl-1H-imidazol-2-yl)sulfonyl)piperidin-4-yl)methyl)-7,9-dihydro-8H-purin-8-one] | 200 to 2000
15 | CC(C)c1ccccc1-c1ncc2[nH]c(=O)n(C3CCC34CN(S(=O)(=O)C(C)C)C4)c2n1 (stereo not drawn) [Compound I-452, 2-(2-isopropylphenyl)-9-(2-(isopropylsulfonyl)-2-azaspiro[3.3]heptan-5-yl)-7,9-dihydro-8H-purin-8-one] | 200 to 2000
16 | CC(C)c1ccccc1-c1ncc2c(n1)n(Cc1ccc(NS(=O)(=O)c3ccn(C)n3)cc1)c(=O)n2C [Compound I-453, N-(4-((2-(2-isopropylphenyl)-7-methyl-8-oxo-7,8-dihydro-9H-purin-9-yl)methyl)phenyl)-1-methyl-1H-pyrazole-3-sulfonamide] | > 2000
17 | CC(C)c1ccccc1-c1ncc2c(n1)n(Cc1ccc(NS(=O)(=O)c3nccn3C)cc1)c(=O)n2C [Compound I-454, N-(4-((2-(2-isopropylphenyl)-7-methyl-8-oxo-7,8-dihydro-9H-purin-9-yl)methyl)phenyl)-1-methyl-1H-imidazole-2-sulfonamide] | 200 to 2000
18 | Cc1nc(S(=O)(=O)Nc2ccc(Cn3c(=O)n(C)c4cnc(-c5ccccc5C(C)C)nc43)cc2)cn1C [Compound I-455, N-(4-((2-(2-isopropylphenyl)-7-methyl-8-oxo-7,8-dihydro-9H-purin-9-yl)methyl)phenyl)-1,2-dimethyl-lH-imidazole-4-sulfonamide] | > 2000
19 | CC(C)c1ccccc1-c1ncc2c(n1)n(Cc1ccc(N(C)S(=O)(=O)c3ccn(C)n3)cc1)c(=O)n2C [Compound I-456, N-(4-((2-(2-isopropylphenyl)-7-methyl-8-oxo-7,8-dihydro-9H-purin-9-yl)methyl)phenyl)-N,1-dimethyl-1H-pyrazole-3-sulfonamide] | 50 to 200
20 | CC(C)c1ccccc1-c1ncc2c(n1)n(Cc1ccc(N(C)S(=O)(=O)c3nccn3C)cc1)c(=O)n2C [Compound I-457, N-(4-((2-(2-isopropylphenyl)-7-methyl-8-oxo-7,8-dihydro-9H-purin-9-yl)methyl)phenyl)-N,1-dimethyl-1H-imidazole-2-sulfonamide] | 50 to 200
21 | Cc1nc(S(=O)(=O)N(C)c2ccc(Cn3c(=O)n(C)c4cnc(-c5ccccc5C(C)C)nc43)cc2)cn1C [Compound I-458, N-(4-((2-(2-isopropylphenyl)-7-methyl-8-oxo-7,8-dihydro-9H-purin-9-yl)methyl)phenyl)-N,1,2-trimethyl-1H-imidazole-4-sulfonamide] | 200 to 2000
22 | CC(C)c1ccccc1-c1ncc2c(n1)n(Cc1ccc(N(C)S(C)(=O)=O)cc1)c(=O)n2C [Compound I-459, N-(4-((2-(2-isopropylphenyl)-7-methyl-8-oxo-7,8-dihydro-9H-purin-9-yl)methyl)phenyl)-N-methylmethanesulfonamide] | 200 to 2000
23 | CC(C)c1ccccc1-c1ncc2[nH]c(=O)n(CC3(F)CCN(S(=O)(=O)C4CC4)CC3)c2n1 [Compound I-460, 9-((1-(cyclopropylsulfonyl)-4-fluoropiperidin-4-yl)methyl)-2-(2-isopropylphenyl)-7,9-dihydro-8H-purin-8-one] | 200 to 2000
24 | CC(C)c1ccccc1-c1ncc2[nH]c(=O)n(CC3CCN(S(=O)(=O)C4CC4)CC3)c2n1 [Compound I-461, 9-((1-(cyclopropylsulfonyl)piperidin-4-yl)methyl)-2-(2-isopropylphenyl)-7,9-dihydro-8H-purin-8-one] | 50 to 200
25 | CC(C)C(=O)N1CCC(Cn2c(=O)n(C)c3cnc(-c4ccccc4C(C)C)nc32)CC1 [Compound I-462, 9-((1-isobutyrylpiperidin-4-yl)methyl)-2-(2-isopropylphenyl)-7-methyl-7,9-dihydro-8H-purin-8-one] | > 2000
26 | CC(=O)N1CCC(c2ccn(-c3ccc(Cn4c(=O)[nH]c5cnc(-c6ccccc6C(C)C)nc54)cc3)n2)CC1 [Compound I-463, 9-(4-(3-(1-acetylpiperidin-4-yl)-1H-pyrazol-1-yl)benzyl)-2-(2-isopropylphenyl)-7,9-dihydro-8H-purin-8-one] | < 50
27 | CC(=O)N1CCC(c2ccn(-c3ccc(Cn4c(=O)[nH]c5cnc(-c6cccc(F)c6C(C)C)nc54)cc3)n2)CC1 [Compound I-464, 9-(4-(3-(1-acetylpiperidin-4-yl)-1H-pyrazol-1-yl)benzyl)-2-(3-fluoro-2-isopropylphenyl)-7,9-dihydro-8H-purin-8-one] | 50 to 200
28 | CC(=O)N1CCC(c2ccn(-c3ccc(Cn4c(=O)[nH]c5cnc(-c6cccnc6C(C)C)nc54)cc3)n2)CC1 [Compound I-465, 9-(4-(3-(1-acetylpiperidin-4-yl)-1H-pyrazol-1-yl)benzyl)-2-(2-isopropylpyridin-3-yl)-7,9-dihydro-8H-purin-8-one] | 200 to 2000
29 | CC(=O)N1CCC(c2ccn(-c3ccc(Cn4c(=O)[nH]c5cnc(-c6cccnc6OCC(F)(F)F)nc54)cc3)n2)CC1 [Compound I-466, 9-(4-(3-(1-acetylpiperidin-4-yl)-1H-pyrazol-1-yl)benzyl)-2-(2-(2,2,2-trifluoroethoxy)pyridin-3-yl)-7,9-dihydro-8H-purin-8-one] | 200 to 2000
30 | CC(=O)N1CCC(c2ccn(-c3ccc(Cn4c(=O)[nH]c5cnc(-c6ccccc6C(C)C)nc54)cc3)n2)C1 (stereo not drawn) [Compound I-467, 9-(4-(3-(1-acetylpyrrolidin-3-yl)-1H-pyrazol-1-yl)benzyl)-2-(2-isopropylphenyl)-7,9-dihydro-8H-purin-8-one] | 50 to 200
